Results: the supplement of paper PMC10307832

Tests used:
Test in all cases: relative viability (nuclei count vs DMSO), 5 days (fraction); higher = more cells survive
Salubrinal + Bortezomib = compound: O=C(/C=C/c1ccccc1)NC(NC(=S)Nc1cccc2cccnc12)C(Cl)(Cl)Cl [Salubrinal] + CC(C)C[C@H](NC(=O)[C@H](Cc1ccccc1)NC(=O)c1cnccn1)B(O)O [Bortezomib] (partner 0.002 µM)
Procedure, shortened: (§1)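 Lung cancer cell lines were pin-tool dosed in 1536-well plates on the day after seeding, with either a lone drug or a fixed anchor-drug dose plus five library-drug doses (not always all listed) in √10 steps. Nuclei were counted on 4× images after 5 days. Relative viability is the ratio of treated-well to vehicle-well nuclei counts, with each value a median of duplicate plates.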

[1] = compound: Cc1ccc2nc(NCCN)c3ncc(C)n3c2c1 + CC(=O)c1c(C)c2cnc(Nc3ccc(N4CCNCC4)cn3)nc2n(C2CCCC2)c1=O [Palbociclib] (partner 0.5 µM)
Procedure, shortened: as §1

[2] = compound: Cc1ccc2nc(NCCN)c3ncc(C)n3c2c1 + C[C@@H](Oc1cc(-c2cnn(C3CCNCC3)c2)cnc1N)c1c(Cl)ccc(F)c1Cl [Crizotinib] (partner 1 µM)
Procedure, shortened: as §1

Salubrinal + Vorinostat = compound: O=C(/C=C/c1ccccc1)NC(NC(=S)Nc1cccc2cccnc12)C(Cl)(Cl)Cl [Salubrinal] + O=C(CCCCCCC(=O)Nc1ccccc1)NO [Vorinostat] (partner 1 µM)
Procedure, shortened: as §1

With NCI-H520 the relative viability (Salubrinal + Bortezomib; first compound 0.08 µM) was 0.881, the relative viability (Salubrinal + Bortezomib; first compound 0.253 µM) was 0.439 and the relative viability (Salubrinal + Bortezomib; first compound 0.8 µM) was 0.793. It also gave a relative viability (Salubrinal + Bortezomib; first compound 2.53 µM) of 0.633, a relative viability (Salubrinal + Bortezomib; first compound 8 µM) of 0.435 and a relative viability ([1]; first compound 0.04 µM) of 0.233. The relative viability ([1]; first compound 0.1265 µM) was 0.222, the relative viability ([1]; first compound 0.4 µM) was 0.215 and the relative viability ([1]; first compound 1.265 µM) was 0.212. For the same cell line, the relative viability ([1]; first compound 4 µM) was 0.243, the relative viability ([2]; first compound 0.04 µM) was 0.725 and the relative viability ([2]; first compound 0.1265 µM) was 0.699. It also gave a relative viability ([2]; first compound 0.4 µM) of 0.761, a relative viability ([2]; first compound 1.265 µM) of 0.791 and a relative viability ([2]; first compound 4 µM) of 0.639. For the same cell line, the relative viability (Salubrinal + Vorinostat; first compound 0.08 µM) was 0.755, the relative viability (Salubrinal + Vorinostat; first compound 0.253 µM) was 0.675 and the relative viability (Salubrinal + Vorinostat; first compound 0.8 µM) was 0.787. The relative viability (Salubrinal + Vorinostat; first compound 2.53 µM) was 0.638 and the relative viability (Salubrinal + Vorinostat; first compound 8 µM) was 0.67.
Work on NCI-H647 yielded a relative viability (Salubrinal + Bortezomib; first compound 0.08 µM) of 1.05, a relative viability (Salubrinal + Bortezomib; first compound 0.253 µM) of 1.37 and a relative viability (Salubrinal + Bortezomib; first compound 0.8 µM) of 1.2. For the same cell line, the relative viability (Salubrinal + Bortezomib; first compound 2.53 µM) was 1.06, the relative viability (Salubrinal + Bortezomib; first compound 8 µM) was 0.792 and the relative viability ([1]; first compound 0.04 µM) was 0.41. The relative viability ([1]; first compound 0.1265 µM) was 0.412, the relative viability ([1]; first compound 0.4 µM) was 0.405 and the relative viability ([1]; first compound 1.265 µM) was 0.413. It also gave a relative viability ([1]; first compound 4 µM) of 0.296, a relative viability ([2]; first compound 0.04 µM) of 1.29 and a relative viability ([2]; first compound 0.1265 µM) of 1.03. It also gave a relative viability ([2]; first compound 0.4 µM) of 1.12, a relative viability ([2]; first compound 1.265 µM) of 0.93 and a relative viability ([2]; first compound 4 µM) of 0.852. It also gave a relative viability (Salubrinal + Vorinostat; first compound 0.08 µM) of 0.546, a relative viability (Salubrinal + Vorinostat; first compound 0.253 µM) of 0.547 and a relative viability (Salubrinal + Vorinostat; first compound 0.8 µM) of 0.773. The relative viability (Salubrinal + Vorinostat; first compound 2.53 µM) was 0.504 and the relative viability (Salubrinal + Vorinostat; first compound 8 µM) was 0.683.
NCI-H650 gave a relative viability (Salubrinal + Bortezomib; first compound 0.08 µM) of 0.877, a relative viability (Salubrinal + Bortezomib; first compound 0.253 µM) of 0.724 and a relative viability (Salubrinal + Bortezomib; first compound 0.8 µM) of 1.23. For the same cell line, the relative viability (Salubrinal + Bortezomib; first compound 2.53 µM) was 0.997, the relative viability (Salubrinal + Bortezomib; first compound 8 µM) was 0.817 and the relative viability ([1]; first compound 0.04 µM) was 0.368. The relative viability ([1]; first compound 0.1265 µM) was 0.316, the relative viability ([1]; first compound 0.4 µM) was 0.258 and the relative viability ([1]; first compound 1.265 µM) was 0.304. The relative viability ([1]; first compound 4 µM) was 0.332, the relative viability ([2]; first compound 0.04 µM) was 0.855 and the relative viability ([2]; first compound 0.1265 µM) was 0.608. It also gave a relative viability ([2]; first compound 0.4 µM) of 0.718, a relative viability ([2]; first compound 1.265 µM) of 0.583 and a relative viability ([2]; first compound 4 µM) of 0.672. For the same cell line, the relative viability (Salubrinal + Vorinostat; first compound 0.08 µM) was 0.477, the relative viability (Salubrinal + Vorinostat; first compound 0.253 µM) was 0.494 and the relative viability (Salubrinal + Vorinostat; first compound 0.8 µM) was 0.382. The relative viability (Salubrinal + Vorinostat; first compound 2.53 µM) was 0.48 and the relative viability (Salubrinal + Vorinostat; first compound 8 µM) was 0.404.
NCI-H661 gave a relative viability (Salubrinal + Bortezomib; first compound 0.08 µM) of 0.876, a relative viability (Salubrinal + Bortezomib; first compound 0.253 µM) of 0.781 and a relative viability (Salubrinal + Bortezomib; first compound 0.8 µM) of 0.714. It also gave a relative viability (Salubrinal + Bortezomib; first compound 2.53 µM) of 0.821, a relative viability (Salubrinal + Bortezomib; first compound 8 µM) of 0.865 and a relative viability ([1]; first compound 0.04 µM) of 0.423. The relative viability ([1]; first compound 0.1265 µM) was 0.452, the relative viability ([1]; first compound 0.4 µM) was 0.407 and the relative viability ([1]; first compound 1.265 µM) was 0.439. For the same cell line, the relative viability ([1]; first compound 4 µM) was 0.477, the relative viability ([2]; first compound 0.04 µM) was 1.05 and the relative viability ([2]; first compound 0.1265 µM) was 1.07. The relative viability ([2]; first compound 0.4 µM) was 0.931, the relative viability ([2]; first compound 1.265 µM) was 1.07 and the relative viability ([2]; first compound 4 µM) was 0.959. The relative viability (Salubrinal + Vorinostat; first compound 0.08 µM) was 0.839, the relative viability (Salubrinal + Vorinostat; first compound 0.253 µM) was 0.739 and the relative viability (Salubrinal + Vorinostat; first compound 0.8 µM) was 0.852. The relative viability (Salubrinal + Vorinostat; first compound 2.53 µM) was 0.806 and the relative viability (Salubrinal + Vorinostat; first compound 8 µM) was 0.793.
In the case of NCI-H727, the relative viability (Salubrinal + Bortezomib; first compound 0.08 µM) is reported as 0.748, the relative viability (Salubrinal + Bortezomib; first compound 0.253 µM) is reported as 0.504 and the relative viability (Salubrinal + Bortezomib; first compound 0.8 µM) is reported as 0.983. It also gave a relative viability (Salubrinal + Bortezomib; first compound 2.53 µM) of 0.862, a relative viability (Salubrinal + Bortezomib; first compound 8 µM) of 0.741 and a relative viability ([1]; first compound 0.04 µM) of 0.648. It also gave a relative viability ([1]; first compound 0.4 µM) of 0.603, a relative viability ([1]; first compound 1.265 µM) of 0.691 and a relative viability ([1]; first compound 4 µM) of 0.722. For the same cell line, the relative viability ([2]; first compound 0.04 µM) was 0.984, the relative viability ([2]; first compound 0.1265 µM) was 0.82 and the relative viability ([2]; first compound 0.4 µM) was 0.779. For the same cell line, the relative viability ([2]; first compound 1.265 µM) was 0.811, the relative viability ([2]; first compound 4 µM) was 0.925 and the relative viability (Salubrinal + Vorinostat; first compound 0.08 µM) was 1.39. For the same cell line, the relative viability (Salubrinal + Vorinostat; first compound 0.253 µM) was 0.948, the relative viability (Salubrinal + Vorinostat; first compound 0.8 µM) was 1.06 and the relative viability (Salubrinal + Vorinostat; first compound 2.53 µM) was 1.1. It also gave a relative viability (Salubrinal + Vorinostat; first compound 8 µM) of 1.24.
In the case of NCI-H838, the relative viability (Salubrinal + Bortezomib; first compound 0.08 µM) is reported as 0.82, the relative viability (Salubrinal + Bortezomib; first compound 0.253 µM) is reported as 0.749 and the relative viability (Salubrinal + Bortezomib; first compound 0.8 µM) is reported as 0.983. For the same cell line, the relative viability (Salubrinal + Bortezomib; first compound 2.53 µM) was 0.911, the relative viability (Salubrinal + Bortezomib; first compound 8 µM) was 0.608 and the relative viability ([1]; first compound 0.04 µM) was 0.216. The relative viability ([1]; first compound 0.1265 µM) was 0.233, the relative viability ([1]; first compound 0.4 µM) was 0.233 and the relative viability ([1]; first compound 1.265 µM) was 0.223. It also gave a relative viability ([1]; first compound 4 µM) of 0.264, a relative viability ([2]; first compound 0.04 µM) of 0.844 and a relative viability ([2]; first compound 0.1265 µM) of 0.777. The relative viability ([2]; first compound 0.4 µM) was 0.795, the relative viability ([2]; first compound 1.265 µM) was 0.789 and the relative viability ([2]; first compound 4 µM) was 0.762. The relative viability (Salubrinal + Vorinostat; first compound 0.08 µM) was 0.764, the relative viability (Salubrinal + Vorinostat; first compound 0.253 µM) was 0.736 and the relative viability (Salubrinal + Vorinostat; first compound 0.8 µM) was 0.728. The relative viability (Salubrinal + Vorinostat; first compound 2.53 µM) was 0.697 and the relative viability (Salubrinal + Vorinostat; first compound 8 µM) was 0.751.
In the case of NCI-H1355, the relative viability (Salubrinal + Bortezomib; first compound 0.08 µM) is reported as 1.32, the relative viability (Salubrinal + Bortezomib; first compound 0.253 µM) is reported as 1.15 and the relative viability (Salubrinal + Bortezomib; first compound 0.8 µM) is reported as 1.2. For the same cell line, the relative viability (Salubrinal + Bortezomib; first compound 2.53 µM) was 1.32, the relative viability (Salubrinal + Bortezomib; first compound 8 µM) was 1.22 and the relative viability ([1]; first compound 0.04 µM) was 0.46. The relative viability ([1]; first compound 0.1265 µM) was 0.4, the relative viability ([1]; first compound 0.4 µM) was 0.406 and the relative viability ([1]; first compound 1.265 µM) was 0.409. It also gave a relative viability ([1]; first compound 4 µM) of 0.376, a relative viability ([2]; first compound 0.04 µM) of 1.1 and a relative viability ([2]; first compound 0.1265 µM) of 1.15. It also gave a relative viability ([2]; first compound 0.4 µM) of 1.04, a relative viability ([2]; first compound 1.265 µM) of 1.01 and a relative viability ([2]; first compound 4 µM) of 0.983. It also gave a relative viability (Salubrinal + Vorinostat; first compound 0.08 µM) of 0.684, a relative viability (Salubrinal + Vorinostat; first compound 0.253 µM) of 0.636 and a relative viability (Salubrinal + Vorinostat; first compound 0.8 µM) of 0.715. For the same cell line, the relative viability (Salubrinal + Vorinostat; first compound 2.53 µM) was 0.657 and the relative viability (Salubrinal + Vorinostat; first compound 8 µM) was 0.645.
NCI-H1437 gave a relative viability (Salubrinal + Bortezomib; first compound 0.08 µM) of 0.667, a relative viability (Salubrinal + Bortezomib; first compound 0.253 µM) of 0.474 and a relative viability (Salubrinal + Bortezomib; first compound 0.8 µM) of 0.68. It also gave a relative viability (Salubrinal + Bortezomib; first compound 2.53 µM) of 0.535, a relative viability (Salubrinal + Bortezomib; first compound 8 µM) of 0.465 and a relative viability ([1]; first compound 0.04 µM) of 0.3. The relative viability ([1]; first compound 0.1265 µM) was 0.315, the relative viability ([1]; first compound 0.4 µM) was 0.296 and the relative viability ([1]; first compound 1.265 µM) was 0.248. For the same cell line, the relative viability ([1]; first compound 4 µM) was 0.287, the relative viability ([2]; first compound 0.04 µM) was 0.96 and the relative viability ([2]; first compound 0.1265 µM) was 0.968. It also gave a relative viability ([2]; first compound 0.4 µM) of 0.965, a relative viability ([2]; first compound 1.265 µM) of 0.952 and a relative viability ([2]; first compound 4 µM) of 0.915. The relative viability (Salubrinal + Vorinostat; first compound 0.08 µM) was 0.841, the relative viability (Salubrinal + Vorinostat; first compound 0.253 µM) was 0.787 and the relative viability (Salubrinal + Vorinostat; first compound 0.8 µM) was 0.812. For the same cell line, the relative viability (Salubrinal + Vorinostat; first compound 2.53 µM) was 0.814 and the relative viability (Salubrinal + Vorinostat; first compound 8 µM) was 0.714.
